Test results published in PubChem BioAssay (NCI).
Several values for one entry are separate records, joined by “and”; a condition that tells them apart may be missing. Equal values may be shown once.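 1) Cells in 96-well plates. 2) Compound, 48 h, 5 concentrations. 3) Linear interpolation between surrounding doses. 4) Unreached endpoint = highest concentration. The concentration for 50% growth inhibition is given as GI50. At the TGI there is no net growth.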

Columns and labels:
Assay in all cases: NCI tumour cell line growth inhibition, 48 h
NCI-H23 lung = test system: NCI-H23 lung
UACC-62 melanoma = test system: UACC-62 melanoma
HOP-62 NSCLC = test system: HOP-62 NSCLC
M14 melanoma = test system: M14 melanoma
SF-268 CNS = test system: SF-268 CNS
SW-620 colon = test system: SW-620 colon
NCI-H522 lung = test system: NCI-H522 lung
OVCAR-5 ovarian = test system: OVCAR-5 ovarian
HT29 colon = test system: HT29 colon
OVCAR-4 ovarian = test system: OVCAR-4 ovarian

SMILES	GI50 (NCI-H23 lung)	TGI (NCI-H23 lung)	GI50 (UACC-62 melanoma)	TGI (UACC-62 melanoma)	GI50 (HOP-62 NSCLC)	TGI (HOP-62 NSCLC)	GI50 (M14 melanoma)	TGI (M14 melanoma)	GI50 (SF-268 CNS)	TGI (SF-268 CNS)	GI50 (SW-620 colon)	TGI (SW-620 colon)	GI50 (NCI-H522 lung)	TGI (NCI-H522 lung)	GI50 (OVCAR-5 ovarian)	TGI (OVCAR-5 ovarian)	TGI (HT29 colon)	TGI (OVCAR-4 ovarian)	GI50 (OVCAR-4 ovarian)	GI50 (HT29 colon)
Nc1ncn([C@@H]2O[C@H](CO)[C@@H](O)[C@H]2O)c(=O)n1	3.91 µM	41.1 µM	0.658 µM	8.67 µM	0.49 µM	2.67 µM	1.38 µM	10.8 µM	2.14 µM	34.7 µM	1.71 µM	> 100 µM	1.29 µM	5.84 µM	2.57 µM	> 100 µM				
Cc1cc2c(=O)c3ccccc3[nH]c2c(C(N)=O)c1C		> 100 µM		> 100 µM				> 100 µM		> 100 µM		> 100 µM		> 100 µM		> 100 µM	> 100 µM	> 100 µM		
COc1ccc2c(c1OCC(=O)O)C(=O)C(CCC(=O)O)CC2 (stereo unspecified)		> 100 µM		> 100 µM		> 100 µM		> 100 µM				> 100 µM					> 100 µM	> 100 µM		
COC(=O)/C(C#N)=C1\N=NNN1c1ccc(OC)cc1		> 100 µM		> 100 µM				> 100 µM				> 100 µM		> 100 µM			> 100 µM			
CCCCCCCCCCCCCCCC(=O)OCCOCCOCCOCc1ccccc1		> 100 µM		> 100 µM		> 100 µM				> 100 µM		> 100 µM				> 100 µM	> 100 µM	> 100 µM		
COC1C(OC(=S)Nc2ccccc2)c2ccccc2N1C(C)=O (stereo unspecified)		> 100 µM		> 100 µM		> 100 µM		> 100 µM				> 100 µM					> 100 µM	> 100 µM		
CCOC(=O)N[C@H]1CCc2cc(OC)c(OC)c(OC)c2-c2ccc(SC)c(=O)cc21				70.7 µM and > 100 µM		> 100 µM		21.7 µM and > 27.1 µM		47.2 µM and > 100 µM		> 100 µM			< 0.01 µM	> 100 µM		> 100 µM	0.0677 µM	
O=C(Nc1cccc(Cl)c1)C(=O)C(C(=O)c1ccc2ccccc2c1)C1OC(=O)c2ccccc21 (stereo unspecified)		24.8 µM		40.6 µM		37.3 µM		36.7 µM		57.5 µM		80.9 µM				59.6 µM	84.5 µM	33 µM		
CCOC(=O)N1CCC(N[C@@H]2c3cc4c(cc3C(c3cc(OC)c(O)c(OC)c3)C3C(=O)OC[C@@H]32)OCO4)CC1 (stereo partly specified)		2.62 µM and 2.69 µM		2.87 µM and 5.37 µM		2.63 µM and 2.65 µM		6.31 µM and 8.14 µM		30.8 µM and > 25 µM		13.7 µM and 7.55 µM	1.41 µM and 3.08 µM	7.72 µM and 7.21 µM	3.3 µM and 7.49 µM	14 µM and 17.4 µM	15.5 µM and 10.7 µM			
O=C(CC1C(=O)Nc2ccccc2S1=O)Nc1cc(Cl)ccc1Cl (stereo unspecified)		> 100 µM		> 100 µM				> 100 µM		> 100 µM		> 100 µM		> 100 µM		> 100 µM	> 100 µM			
c1ccc2c(OCCSCCCCCCCCCCSCCOc3cccc4ccccc34)cccc2c1		> 100 µM		> 100 µM		> 100 µM				> 100 µM		> 100 µM		> 100 µM		> 100 µM	> 100 µM			
CN1CCN(c2ccc(Nc3cc(-c4cccc(-n5ccc6cc(C7CC7)cc(F)c6c5=O)c4CO)cn(C)c3=O)nc2)CC1	13.6 µM	37.3 µM	2.4 µM	6.63 µM	3.97 µM	20.7 µM	2.69 µM	8.19 µM	5.58 µM	20.9 µM	4.74 µM	23.9 µM	4.33 µM	21 µM	2.82 µM	9.75 µM	13.9 µM			3 µM
COc1cnc2c(c1)C(=O)c1c-2n(CCCNC2=NCCS2)c(=O)c2cc([N+](=O)[O-])ccc12							< 0.01 µM	1.16 µM	< 0.01 µM	1.88 µM	0.0139 µM	1.84 µM			1.04 µM	3.59 µM		2.58 µM	0.482 µM	
O=C(OC1CCC(=C2SCCCS2)[C@H]1C1SCCCS1)c1ccccc1 (stereo partly specified)		> 100 µM		> 100 µM		> 100 µM		> 100 µM				> 100 µM					> 100 µM	> 100 µM		
CC(=O)Nc1ccc(-c2csc(Nc3cccc(-c4csc(C)n4)c3)n2)cc1	3.31 µM	> 27.7 µM	0.139 µM	1.51 µM	3.02 µM	15 µM	0.743 µM	8.81 µM	4.38 µM	> 27.1 µM	3.51 µM	49 µM	7.72 µM	> 28 µM	10 µM	> 36.8 µM	> 50 µM			2.38 µM
Cc1ccc2nc(/C(=C/c3ccc(/C=C(\NC(=O)c4ccccc4)c4nc5ccc(C)cc5[nH]4)c(C)c3)NC(=O)c3ccccc3)[nH]c2c1		45.3 µM		13.1 µM		> 100 µM		52.7 µM		> 100 µM		> 100 µM		42.6 µM		33.8 µM	> 100 µM			
CCOC(=O)c1ccc(/C(C)=N/NC(N)=S)cc1		> 100 µM		> 100 µM		> 100 µM		> 100 µM				> 100 µM						> 100 µM		
